Assay results taken from publication PMC10176470, “Engaging a Non-catalytic Cysteine Residue Drives Potent and Selective Inhibition of Caspase-6” (Journal of the American Chemical Society, 2023).

What was measured:
Assay type in all cases: cell-based
[1] = target: proteins of HEK293T cells transiently overexpressing caspase-6 (Homo sapiens, UniProt Q15185); conditions: exp_ref Probe; protein PTGES3 (Q15185); analysis C6
[2] = target: proteins of HEK293T cells transiently overexpressing caspase-6 (Homo sapiens, UniProt P50914); conditions: exp_ref Probe; protein RPL14 (P50914); analysis C6
[3] = target: proteins of HEK293T cells transiently overexpressing caspase-6 (Homo sapiens, UniProt Q96SB4); conditions: protein SRPK1 (Q96SB4); exp_ref Probe; analysis C6
[4] = target: proteins of HEK293T cells transiently overexpressing caspase-6 (Homo sapiens, UniProt Q13347); conditions: protein EIF3I (Q13347); exp_ref Probe; analysis C6
[5] = target: proteins of HEK293T cells transiently overexpressing caspase-6 (Homo sapiens, UniProt P60842); conditions: exp_ref Probe; protein EIF4A1 (P60842); analysis C6
[6] = target: proteins of HEK293T cells transiently overexpressing caspase-6 (Homo sapiens, UniProt P84090); conditions: Probe; protein ERH P84090
[7] = target: proteins of HEK293T cells transiently overexpressing caspase-6 (Homo sapiens, UniProt P08758); conditions: exp_ref Probe; protein ANXA5 (P08758); analysis C6
[8] = target: proteins of HEK293T cells transiently overexpressing caspase-6 (Homo sapiens, UniProt Q9UBE0); conditions: protein SAE1 (Q9UBE0); exp_ref Probe; analysis C6
[9] = target: proteins of HEK293T cells transiently overexpressing caspase-6 (Homo sapiens, UniProt P05141); conditions: exp_ref Probe; protein SLC25A5 (P05141); analysis C6
[10] = target: proteins of HEK293T cells transiently overexpressing caspase-6 (Homo sapiens, UniProt P46060); conditions: exp_ref Probe; protein RANGAP1 (P46060); analysis C6
[11] = target: proteins of HEK293T cells transiently overexpressing caspase-6 (Homo sapiens, UniProt P14174); conditions: Probe; protein MIF P14174
[12] = target: proteins of HEK293T cells transiently overexpressing caspase-6 (Homo sapiens, UniProt P13639); conditions: protein EEF2 (P13639)
[13] = target: T1, proteins of HEK293T cells transiently overexpressing caspase-6 (Homo sapiens, UniProt Q9NQC3); conditions: protein RTN4 (Q9NQC3), analysis C6
T1 sequence (Q9NQC3 1-1192): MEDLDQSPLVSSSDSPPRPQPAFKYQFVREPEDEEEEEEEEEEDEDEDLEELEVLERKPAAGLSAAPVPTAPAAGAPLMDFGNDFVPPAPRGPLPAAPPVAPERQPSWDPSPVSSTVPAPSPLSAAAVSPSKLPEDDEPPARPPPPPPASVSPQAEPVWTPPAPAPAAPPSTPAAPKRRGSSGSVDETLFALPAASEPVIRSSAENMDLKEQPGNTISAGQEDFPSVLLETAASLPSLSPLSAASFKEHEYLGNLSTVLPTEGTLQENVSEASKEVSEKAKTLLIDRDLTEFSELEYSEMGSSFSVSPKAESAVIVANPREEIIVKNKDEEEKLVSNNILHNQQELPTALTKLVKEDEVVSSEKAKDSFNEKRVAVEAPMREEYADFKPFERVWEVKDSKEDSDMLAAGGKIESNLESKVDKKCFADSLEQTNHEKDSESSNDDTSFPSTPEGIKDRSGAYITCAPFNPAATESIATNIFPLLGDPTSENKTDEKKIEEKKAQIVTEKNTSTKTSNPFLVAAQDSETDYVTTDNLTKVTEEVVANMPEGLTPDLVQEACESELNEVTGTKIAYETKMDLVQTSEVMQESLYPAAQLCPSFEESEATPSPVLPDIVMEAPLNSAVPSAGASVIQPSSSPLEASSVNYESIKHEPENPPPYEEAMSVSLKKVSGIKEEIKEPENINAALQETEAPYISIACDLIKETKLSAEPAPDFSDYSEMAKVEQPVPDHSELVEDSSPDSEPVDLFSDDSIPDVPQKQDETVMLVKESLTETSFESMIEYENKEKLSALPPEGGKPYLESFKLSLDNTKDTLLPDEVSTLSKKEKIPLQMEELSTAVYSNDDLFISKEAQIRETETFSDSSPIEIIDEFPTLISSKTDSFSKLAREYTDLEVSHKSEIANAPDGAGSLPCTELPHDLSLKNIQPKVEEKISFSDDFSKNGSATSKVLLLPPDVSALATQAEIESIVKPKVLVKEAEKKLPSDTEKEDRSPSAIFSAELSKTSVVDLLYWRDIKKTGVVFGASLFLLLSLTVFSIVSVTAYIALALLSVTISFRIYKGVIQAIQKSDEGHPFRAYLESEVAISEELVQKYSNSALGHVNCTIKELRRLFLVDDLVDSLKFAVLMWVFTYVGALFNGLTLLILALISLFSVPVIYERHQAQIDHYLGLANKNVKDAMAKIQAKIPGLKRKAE

[14] = target: proteins of HEK293T cells transiently overexpressing caspase-6 (Homo sapiens, UniProt Q9P258); conditions: exp_ref Probe; protein RCC2 (Q9P258); analysis C6
[15] = target: proteins of HEK293T cells transiently overexpressing caspase-6 (Homo sapiens, UniProt O95373); conditions: Probe; protein IPO7 O95373
[16] = target: proteins of HEK293T cells transiently overexpressing caspase-6 (Homo sapiens, UniProt P49588); conditions: Probe; protein AARS P49588
[17] = target: proteins of HEK293T cells transiently overexpressing caspase-6 (Homo sapiens, UniProt P21964); conditions: Probe; protein COMT P21964
Sequence of proteins of HEK293T cells transiently overexpressing caspase-6 (Homo sapiens, UniProt P21964) (P21964 whole entry): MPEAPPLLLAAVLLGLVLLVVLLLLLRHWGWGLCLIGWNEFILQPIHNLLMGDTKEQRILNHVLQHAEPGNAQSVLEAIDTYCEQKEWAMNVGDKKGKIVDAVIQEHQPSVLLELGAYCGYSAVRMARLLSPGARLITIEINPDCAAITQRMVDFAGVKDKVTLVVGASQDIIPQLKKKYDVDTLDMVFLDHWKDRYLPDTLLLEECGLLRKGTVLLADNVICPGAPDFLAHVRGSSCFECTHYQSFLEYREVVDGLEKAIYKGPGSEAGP

Sequence of proteins of HEK293T cells transiently overexpressing caspase-6 (Homo sapiens, UniProt O95373) (O95373 whole entry): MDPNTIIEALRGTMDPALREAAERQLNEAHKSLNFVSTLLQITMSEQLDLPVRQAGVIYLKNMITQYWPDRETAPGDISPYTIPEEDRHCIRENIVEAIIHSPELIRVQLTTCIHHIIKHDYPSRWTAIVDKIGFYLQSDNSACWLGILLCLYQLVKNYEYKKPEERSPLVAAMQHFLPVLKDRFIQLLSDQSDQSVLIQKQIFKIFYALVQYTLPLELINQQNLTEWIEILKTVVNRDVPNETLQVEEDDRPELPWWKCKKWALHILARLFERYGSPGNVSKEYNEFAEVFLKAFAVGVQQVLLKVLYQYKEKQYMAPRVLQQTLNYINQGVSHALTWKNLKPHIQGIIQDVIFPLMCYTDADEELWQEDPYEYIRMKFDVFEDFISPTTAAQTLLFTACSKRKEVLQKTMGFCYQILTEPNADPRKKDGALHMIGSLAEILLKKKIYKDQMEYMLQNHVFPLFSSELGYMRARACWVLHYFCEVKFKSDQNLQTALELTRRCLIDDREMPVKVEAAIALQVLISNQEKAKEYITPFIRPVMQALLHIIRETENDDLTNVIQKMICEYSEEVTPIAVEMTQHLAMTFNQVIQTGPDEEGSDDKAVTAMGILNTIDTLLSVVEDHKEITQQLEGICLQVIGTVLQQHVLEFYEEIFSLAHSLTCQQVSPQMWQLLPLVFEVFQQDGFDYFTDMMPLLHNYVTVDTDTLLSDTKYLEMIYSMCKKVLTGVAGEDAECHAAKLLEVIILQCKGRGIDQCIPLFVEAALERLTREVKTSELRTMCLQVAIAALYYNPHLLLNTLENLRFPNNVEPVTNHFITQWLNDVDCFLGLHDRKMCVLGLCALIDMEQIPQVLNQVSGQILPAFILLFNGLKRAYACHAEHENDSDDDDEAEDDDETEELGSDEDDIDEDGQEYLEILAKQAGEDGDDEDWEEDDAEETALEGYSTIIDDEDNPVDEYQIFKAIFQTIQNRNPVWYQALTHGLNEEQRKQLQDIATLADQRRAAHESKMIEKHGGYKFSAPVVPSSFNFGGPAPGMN
Sequence of proteins of HEK293T cells transiently overexpressing caspase-6 (Homo sapiens, UniProt P46060) (P46060 whole entry): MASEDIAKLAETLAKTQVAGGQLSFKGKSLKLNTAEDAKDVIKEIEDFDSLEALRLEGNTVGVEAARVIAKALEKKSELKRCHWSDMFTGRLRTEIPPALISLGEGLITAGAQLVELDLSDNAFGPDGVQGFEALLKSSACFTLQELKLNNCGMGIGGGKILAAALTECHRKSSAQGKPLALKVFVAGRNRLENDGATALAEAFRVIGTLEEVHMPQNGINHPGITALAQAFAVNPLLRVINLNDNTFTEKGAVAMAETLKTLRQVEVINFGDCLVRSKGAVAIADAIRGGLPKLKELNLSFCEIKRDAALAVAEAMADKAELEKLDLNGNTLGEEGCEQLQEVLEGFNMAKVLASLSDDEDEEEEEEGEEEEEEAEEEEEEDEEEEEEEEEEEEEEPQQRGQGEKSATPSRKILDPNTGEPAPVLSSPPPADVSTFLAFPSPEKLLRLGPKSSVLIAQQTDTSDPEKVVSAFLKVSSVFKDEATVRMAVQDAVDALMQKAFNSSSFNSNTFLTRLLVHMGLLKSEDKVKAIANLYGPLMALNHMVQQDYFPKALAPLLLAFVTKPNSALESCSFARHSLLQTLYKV
Sequence of proteins of HEK293T cells transiently overexpressing caspase-6 (Homo sapiens, UniProt Q96SB4) (Q96SB4 whole entry): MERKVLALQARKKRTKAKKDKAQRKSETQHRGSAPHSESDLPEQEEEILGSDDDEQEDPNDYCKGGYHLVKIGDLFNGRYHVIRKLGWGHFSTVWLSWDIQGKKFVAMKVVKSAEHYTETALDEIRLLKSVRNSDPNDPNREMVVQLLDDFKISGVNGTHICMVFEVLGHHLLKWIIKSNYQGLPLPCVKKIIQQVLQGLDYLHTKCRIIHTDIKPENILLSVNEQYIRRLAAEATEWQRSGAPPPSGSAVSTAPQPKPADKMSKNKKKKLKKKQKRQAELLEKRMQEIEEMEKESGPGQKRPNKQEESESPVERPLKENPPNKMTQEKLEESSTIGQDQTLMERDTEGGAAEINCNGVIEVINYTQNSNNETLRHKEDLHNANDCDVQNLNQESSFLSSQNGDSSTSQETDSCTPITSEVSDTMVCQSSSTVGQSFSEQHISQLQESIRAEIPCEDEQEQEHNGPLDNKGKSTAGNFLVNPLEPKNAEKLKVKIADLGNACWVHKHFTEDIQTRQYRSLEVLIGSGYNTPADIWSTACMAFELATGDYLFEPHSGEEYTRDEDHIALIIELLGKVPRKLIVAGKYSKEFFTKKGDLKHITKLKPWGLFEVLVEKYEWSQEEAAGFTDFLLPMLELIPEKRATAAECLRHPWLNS
Sequence of proteins of HEK293T cells transiently overexpressing caspase-6 (Homo sapiens, UniProt Q15185) (Q15185 whole entry): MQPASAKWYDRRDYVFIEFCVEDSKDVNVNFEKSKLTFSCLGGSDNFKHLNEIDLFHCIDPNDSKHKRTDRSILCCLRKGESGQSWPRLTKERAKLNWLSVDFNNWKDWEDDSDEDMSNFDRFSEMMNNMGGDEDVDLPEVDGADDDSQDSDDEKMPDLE
Sequence of proteins of HEK293T cells transiently overexpressing caspase-6 (Homo sapiens, UniProt P60842) (P60842 whole entry): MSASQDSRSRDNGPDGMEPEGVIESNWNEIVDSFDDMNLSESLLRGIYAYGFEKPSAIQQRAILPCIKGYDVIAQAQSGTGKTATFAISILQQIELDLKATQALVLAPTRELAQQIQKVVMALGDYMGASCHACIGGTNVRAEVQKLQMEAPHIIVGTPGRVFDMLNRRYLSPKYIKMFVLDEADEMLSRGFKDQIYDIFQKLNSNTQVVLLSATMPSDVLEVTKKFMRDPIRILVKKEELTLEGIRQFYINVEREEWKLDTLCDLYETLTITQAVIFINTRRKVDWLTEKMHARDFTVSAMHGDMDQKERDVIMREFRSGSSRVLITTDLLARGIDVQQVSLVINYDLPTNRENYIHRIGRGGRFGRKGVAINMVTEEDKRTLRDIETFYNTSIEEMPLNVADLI
Sequence of proteins of HEK293T cells transiently overexpressing caspase-6 (Homo sapiens, UniProt Q9UBE0) (Q9UBE0 whole entry): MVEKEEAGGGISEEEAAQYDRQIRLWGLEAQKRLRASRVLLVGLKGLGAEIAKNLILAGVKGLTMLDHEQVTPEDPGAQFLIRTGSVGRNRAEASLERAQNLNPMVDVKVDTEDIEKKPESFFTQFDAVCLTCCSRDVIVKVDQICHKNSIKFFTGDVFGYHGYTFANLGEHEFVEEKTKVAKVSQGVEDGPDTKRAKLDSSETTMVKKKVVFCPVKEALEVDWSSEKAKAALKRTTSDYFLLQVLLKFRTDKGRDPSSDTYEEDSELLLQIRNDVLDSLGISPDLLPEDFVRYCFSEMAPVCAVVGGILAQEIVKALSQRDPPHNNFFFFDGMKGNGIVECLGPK
Sequence of proteins of HEK293T cells transiently overexpressing caspase-6 (Homo sapiens, UniProt P49588) (P49588 whole entry): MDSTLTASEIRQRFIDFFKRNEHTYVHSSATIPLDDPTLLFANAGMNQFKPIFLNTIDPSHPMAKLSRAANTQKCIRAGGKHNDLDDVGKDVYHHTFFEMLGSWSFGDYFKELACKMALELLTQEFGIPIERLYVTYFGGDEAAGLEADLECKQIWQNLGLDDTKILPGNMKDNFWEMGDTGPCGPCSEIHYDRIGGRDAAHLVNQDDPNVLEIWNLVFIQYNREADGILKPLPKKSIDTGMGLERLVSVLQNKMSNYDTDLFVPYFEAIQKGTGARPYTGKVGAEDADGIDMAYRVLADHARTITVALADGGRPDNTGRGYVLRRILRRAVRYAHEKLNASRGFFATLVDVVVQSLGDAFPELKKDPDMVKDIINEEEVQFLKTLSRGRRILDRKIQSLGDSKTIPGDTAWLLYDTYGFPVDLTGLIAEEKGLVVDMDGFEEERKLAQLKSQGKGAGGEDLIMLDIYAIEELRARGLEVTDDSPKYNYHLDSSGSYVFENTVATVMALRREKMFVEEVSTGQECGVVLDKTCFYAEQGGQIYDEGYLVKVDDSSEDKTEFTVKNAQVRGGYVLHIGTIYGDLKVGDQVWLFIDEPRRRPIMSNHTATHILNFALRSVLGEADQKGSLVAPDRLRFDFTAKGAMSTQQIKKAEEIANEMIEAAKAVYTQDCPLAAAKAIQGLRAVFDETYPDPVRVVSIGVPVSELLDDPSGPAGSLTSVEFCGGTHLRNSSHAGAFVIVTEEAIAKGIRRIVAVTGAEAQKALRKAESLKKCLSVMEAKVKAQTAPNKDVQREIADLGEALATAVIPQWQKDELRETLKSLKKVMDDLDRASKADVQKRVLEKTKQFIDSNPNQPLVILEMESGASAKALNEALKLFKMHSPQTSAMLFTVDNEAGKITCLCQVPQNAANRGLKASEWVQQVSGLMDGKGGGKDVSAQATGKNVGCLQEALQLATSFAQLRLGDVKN
Sequence of proteins of HEK293T cells transiently overexpressing caspase-6 (Homo sapiens, UniProt Q13347) (Q13347 whole entry): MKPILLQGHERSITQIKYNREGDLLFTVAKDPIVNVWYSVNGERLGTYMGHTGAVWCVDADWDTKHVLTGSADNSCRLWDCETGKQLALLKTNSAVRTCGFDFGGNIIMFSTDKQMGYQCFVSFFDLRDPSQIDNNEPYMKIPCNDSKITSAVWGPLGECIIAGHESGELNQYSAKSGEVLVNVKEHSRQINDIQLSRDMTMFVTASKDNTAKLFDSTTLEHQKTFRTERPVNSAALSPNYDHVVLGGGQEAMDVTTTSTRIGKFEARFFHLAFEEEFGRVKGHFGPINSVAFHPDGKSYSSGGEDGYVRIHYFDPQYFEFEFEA
Sequence of proteins of HEK293T cells transiently overexpressing caspase-6 (Homo sapiens, UniProt P14174) (P14174 whole entry): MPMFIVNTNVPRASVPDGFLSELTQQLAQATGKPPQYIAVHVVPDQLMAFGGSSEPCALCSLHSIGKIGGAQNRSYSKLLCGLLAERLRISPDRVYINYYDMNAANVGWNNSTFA

Question: Which enrich.exp.med [1] does the source give for `C#CCOc1ccc([C@@H]2C[C@@H](C(=O)Nc3ccc(OC(F)(F)F)cc3)CN(S(=O)(=O)C=C)C2)cc1` (relative stereo) [13-t] here?
Answer: Its enrich.exp.med is 1.128.

Question: And the enrich.exp.med [2]?
Answer: Its enrich.exp.med is 0.5362.

Question: What about the enrich.exp.med [3] of the same molecule?
Answer: Its enrich.exp.med is 1.262.

Question: And the enrich.exp.med [4]?
Answer: The enrich.exp.med was 1.576.

Question: What about the enrich.exp.med [5] of the same molecule?
Answer: The enrich.exp.med was 0.8215.

Question: What about the enrich.exp.med [6] of the same molecule?
Answer: The enrich.exp.med was -0.8193.

Question: And the enrich.exp.med [7]?
Answer: Its enrich.exp.med is 0.2384.

Question: And the enrich.exp.med [8]?
Answer: The enrich.exp.med was 1.338.

Question: What about the enrich.exp.med [9] of the same molecule?
Answer: Its enrich.exp.med is 0.9373.

Question: And the enrich.exp.med [10]?
Answer: The enrich.exp.med was 0.1212.

Question: What about the enrich.exp.med [11] of the same molecule?
Answer: The enrich.exp.med was -1.906.

Question: What about the enrich.exp.med ([12]; exp_ref Probe, analysis C6) of the same molecule?
Answer: Its enrich.exp.med is 0.2961.

Question: What about the enrich.exp.med.lin [12] of the same molecule?
Answer: Its enrich.exp.med.lin is 1.228.

Question: And the enrich.exp.med.log2 [12]?
Answer: The enrich.exp.med.log2 was 0.2961.

Question: What about the enrich.exp.med.lin ([13]; Expt Probe) of the same molecule?
Answer: Its enrich.exp.med.lin is 6.436.

Question: And the enrich.exp.med.log2 ([13]; Expt Probe)?
Answer: Its enrich.exp.med.log2 is 2.686.

Question: And the enrich.exp.med ([13]; exp_ref Probe)?
Answer: Its enrich.exp.med is 2.686.

Question: What about the enrich.exp.med [14] of the same molecule?
Answer: Its enrich.exp.med is 0.2232.

Question: What about the enrich.exp.med [15] of the same molecule?
Answer: Its enrich.exp.med is -0.5106.

Question: And the enrich.exp.med [16]?
Answer: Its enrich.exp.med is -2.083.

Question: And the enrich.exp.med [17]?
Answer: Its enrich.exp.med is -3.436.
